Test results taken from patent US20110014226A1, “HIGH […] I[…]” (priority 2008, published 2011).

Assays:
D5 binding to 5-helix = test: D5 Competitive Binding Assay (DCBA) high throughput screen with F19 counter-screen; design: species or system HIV-1; settings: among the compounds listed in Table 2; DCBA primary screen vs F19 counter-screen
From the text: An in vitro binding assay was developed using D5 IgG conjugated to europium cryptate (Eu-D5) and a biotinylated gp41 mimetic molecule that presents the hydrophobic pocket in a stabilized structural context (termed 5-helix (or 5H) peptide). The assay readout is based on a fluorescence resonance energy transfer (FRET) format. Biotin-5-helix binds to a streptavidin-conjugated allophycocyanin (APC) substrate to form a 5H-SA-APC complex. When Eu-D5 binds to the hydrophobic pocket of biotin-5H, it brings the Eu into close proximity with the APC substrate to allow FRET from Eu to APC. When the reaction system is excited at a wavelength of 340 nm, the Eu signals at 620 nm. If the Eu is in close proximity to the APC, it excites the APC which results in long-lived emissions at 665 nm. Introducing a time delay (e.g., ˜100 μseconds) between the system excitation and fluorescence measurement allows the FRET signals to be cleared of non-specific short-lived emissions (“time-resolved FRET”). The resulting specific FRET signal indicative of the amount of Eu-D5 bound to biotin-5H can be quantified by the ratio of fluorescence [counts at 665 nm/fluorescence counts at 620 nm]×10,000. […]
Briefly, the assay was performed in the following manner. […] The plate was then read using the Fusion Universal Microplate Analyzer (Packard Bioscience). […]

ccIZN36 = test: ELISA of mouse antisera after immunization, coated with ccIZN36; assay type: in vivo; settings: balb/c mice, 25 μg conjugate intramuscularly three times at 2-week intervals, Merck aluminum alum + IMO-2055; reciprocal endpoint titers by ELISA
[1] = ELISA of mouse antisera after immunization, coated with biotinylated Compound 2.58; assay type: in vivo; settings: balb/c mice, 25 μg conjugate intramuscularly three times at 2-week intervals, Merck aluminum alum + IMO-2055; reciprocal endpoint titers by ELISA
CRM197 = settings: mouse, in vivo
[2] = ELISA of mouse antisera after immunization with hapten-CRM197 conjugates, coated with biotinylated Compound 2.45; assay type: in vivo; settings: balb/c mice, 25 μg conjugate intramuscularly three times at 2-week intervals, Merck aluminum alum + IMO-2055; reciprocal endpoint titers by ELISA
5-helix = settings: in vivo; for Post-dose 3 geometric mean antibody titer (GMT) elicited versus 5-helix: mouse
ccIZN17 = test: ELISA of mouse antisera after immunization, coated with ccIZN17; assay type: in vivo; settings: balb/c mice, 25 μg conjugate intramuscularly three times at 2-week intervals, Merck aluminum alum + IMO-2055; reciprocal endpoint titers by ELISA

| SMILES | specific inhibition of D5 binding relative to F19 inhibition (D5 binding to 5-helix) | Post-dose 3 geometric mean antibody titer (GMT) elicited versus ccIZN36 (ccIZN36) | Post-dose 3 geometric mean antibody titer (GMT) elicited versus Compound 2.58 [1] | Post-dose 3 geometric mean antibody titer (GMT) elicited versus CRM197 (CRM197) | Post-dose 3 geometric mean antibody titer (GMT) elicited versus Compound 2.45 [2] | binding activity of individual mouse sera in the 5H ELISA (5-helix) | Post-dose 3 geometric mean antibody titer (GMT) elicited versus 5-helix (5-helix) | Post-dose 3 geometric mean antibody titer (GMT) elicited versus ccIZN17 (ccIZN17) |
| --- | --- | --- | --- | --- | --- | --- | --- | --- |
| CCNC(=O)[C@]1(Cc2ccccc2)CCCN(C(=O)[C@@H](Cc2ccc3ccccc3c2)NC(=O)N2CC(C)NC(C)C2)C1 (stereo partly drawn) [Compound 1.1] | the best in terms of specific inhibition of D5 binding relative to F19 inhibition |  |  |  |  |  |  |  |
| CCNC(=O)[C@]1(Cc2ccccc2)CCCN(C(=O)[C@@H](Cc2ccc3ccccc3c2)NC(=O)N2CCNCC2)C1 [Compound 2.45] |  | <100 | >1,600,000 | 1,600 | >1,600,000 | more pronounced binding activity | 400 | <100 |
| CCNC(=O)[C@]1(Cc2ccccc2)CCCN(C(=O)[C@@H](Cc2ccc(Cl)c(Cl)c2)NC(=O)N[C@@H]2CCCNC2)C1 [Compound 2.58] |  | <100 | 713,155 | 400 | >1,600,000 | more pronounced binding activity | 200 | 200 |
